Laboratory results reported in ChEMBL document CHEMBL1201862, “PubChem BioAssay data set” (2004).
Calls of active or inactive are those of the source.

Columns and labels:
HEK293 = test: EBV LMP1 TES2 canonical NF-kB signalling blockers – cell-based, HEK293, luciferase, cherry-pick, dose response (AID 588343); type: functional; settings: Homo sapiens
[1] = Luminescence Cell-Based Dose Response HTS to Identify Inhibitors of 5'UTR Stem-Loop Driven Prion Protein mRNA Translation in H4 Neuroglioblastoma Cells. [Related pubchem assays: 1827 (Project Summary), 1813 (Primary HTS)]; type: functional
[2] = target: T1, Latent membrane protein 1 (Human herpesvirus 4 (strain B95-8), UniProt P03230); test: LMP1 TES1 pathway selectivity over dsRED control – imaging, HEK293T, dual-color eGFP/dsRED, cherry-picks, selectivity assay for LMP1 NF-kB inhibitor project, dose response (AID 588398); type: functional, cell-based
T1 sequence (P03230 whole entry): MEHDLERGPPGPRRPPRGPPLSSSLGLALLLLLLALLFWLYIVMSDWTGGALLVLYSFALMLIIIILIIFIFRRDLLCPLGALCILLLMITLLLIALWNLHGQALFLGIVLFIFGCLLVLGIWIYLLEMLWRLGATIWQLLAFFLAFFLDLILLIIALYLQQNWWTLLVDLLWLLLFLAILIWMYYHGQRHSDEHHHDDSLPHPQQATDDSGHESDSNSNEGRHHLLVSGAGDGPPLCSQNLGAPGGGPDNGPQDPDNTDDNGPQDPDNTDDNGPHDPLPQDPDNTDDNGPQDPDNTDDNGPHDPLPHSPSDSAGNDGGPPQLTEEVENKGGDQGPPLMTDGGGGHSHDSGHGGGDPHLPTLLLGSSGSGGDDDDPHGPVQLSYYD

[3] = alpha-synuclein stem-loop luciferase translation blockers – H4 neuroglioma cells, luminescence, confirmation (AID 1988); type: functional, cell-based
Cytochrome P450 3A4 = Cytochrome P450 3A4 (Homo sapiens, UniProt P08684);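 also: CYP3A4 tested as one member of a cytochrome P450 panel screen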
[4] = target: Tyrosine-protein phosphatase non-receptor type 5 (Homo sapiens, UniProt P54829); test: PTPN5 enzyme inhibition – biochemical, fluorescence intensity, uHTS hits, confirmation (AID 602372); type: functional; settings: read-out: IC50_Mean
[5] = target: Tyrosine-protein phosphatase non-receptor type 11 (Homo sapiens, UniProt Q06124); test: PTPN11 enzyme inhibitors – biochemical, selectivity assay for STEP inhibitor project, dose response (AID 602367); type: functional; settings: read-out: IC50_Mean
[6] = target: Dual specificity protein phosphatase 3 (Homo sapiens, UniProt P51452); test: VHR phosphatase inhibition, dose response, selectivity assay for STEP inhibitor project, biochemical (AID 602374); type: functional; settings: read-out: IC50_Mean
Large T antigen = Large T antigen (Simian virus 40, UniProt P03070); type: functional, Betapolyomavirus macacae;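 also: Confirmatory-stage PubChem screen for compounds that inhibit SV40 T antigen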
[7] = target: 72 kDa type IV collagenase (Homo sapiens, UniProt P08253); test: Dose Response validation of uHTS RPN11 inhibitor hits using a MMP-2 Fluorescence assay.; type: functional
Prothrombin = Prothrombin (Bos taurus, UniProt P00735); test: thrombin protease inhibitors – biochemical, fluorescence polarization, uHTS hits, dose response (AID 602369); type: functional
[8] = target: 26S proteasome non-ATPase regulatory subunit 14 (Homo sapiens, UniProt O00487); test: inhibition of proteasome subunit RPN11 – biochemical, fluorescence polarization, uHTS hits, confirmation (AID 602368); type: functional
[9] = blockers of CRF-binding protein–CRF-R2 complex – cell-based, uHTS hits, 384-well, dose response (AID 651639); type: functional, Homo sapiens; settings: read-out: IC50_Mean
[10] = target: T2, Corticotropin-releasing factor receptor 2/Corticotropin-releasing factor-binding protein (Homo sapiens, UniProt P24387+Q13324); test: activators of CRF receptor 2 with binding protein – uHTS hits, confirmation (AID 602473); type: functional; settings: read-out: EC50_Mean
T2 sequence (Q13324 whole entry): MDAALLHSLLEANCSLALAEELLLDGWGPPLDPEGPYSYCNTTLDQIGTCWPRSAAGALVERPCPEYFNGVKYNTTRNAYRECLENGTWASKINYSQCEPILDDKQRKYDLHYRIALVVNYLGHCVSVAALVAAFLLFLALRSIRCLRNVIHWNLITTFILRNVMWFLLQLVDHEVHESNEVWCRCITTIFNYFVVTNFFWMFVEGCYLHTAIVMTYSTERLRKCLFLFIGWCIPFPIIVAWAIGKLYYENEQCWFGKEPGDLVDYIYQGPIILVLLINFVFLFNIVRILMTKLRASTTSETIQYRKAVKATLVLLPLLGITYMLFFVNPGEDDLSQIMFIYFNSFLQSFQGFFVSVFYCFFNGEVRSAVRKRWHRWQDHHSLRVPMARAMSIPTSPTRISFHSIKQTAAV
T2 sequence (P24387 whole entry): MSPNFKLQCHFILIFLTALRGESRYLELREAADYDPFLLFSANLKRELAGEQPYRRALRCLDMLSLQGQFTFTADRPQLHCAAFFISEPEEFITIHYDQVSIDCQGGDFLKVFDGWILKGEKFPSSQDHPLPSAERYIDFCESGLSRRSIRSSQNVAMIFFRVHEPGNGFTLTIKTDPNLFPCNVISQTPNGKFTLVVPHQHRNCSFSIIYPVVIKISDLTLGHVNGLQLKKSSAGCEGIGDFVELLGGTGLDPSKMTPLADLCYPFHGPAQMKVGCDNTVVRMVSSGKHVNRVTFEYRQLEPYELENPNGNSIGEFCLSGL

[11] = target: T2, Corticotropin-releasing factor receptor 2/Corticotropin-releasing factor-binding protein; test: Dose Response confirmation of uHTS hits for small molecule antagonists of the CRF-binding protein and CRF-R2 receptor complex.; type: functional; settings: read-out: IC50_Mean
[12] = target: Photoreceptor-specific nuclear receptor (Homo sapiens, UniProt Q9Y5X4); type: functional, cell-based;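 also: CHO-S cells with Gal4-NCOR and VP16-NR2E3 two-hybrid luciferase reporter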
[13] = NIH3T3 cell viability loss – ATP luminescence, mouse fibroblasts, counter-screen, dose response (AID 2010); type: functional, cell-based;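 also: cells exposed to compound for about 90 hours before reading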
[14] = Trypanosoma cruzi growth suppression in host cells – NIH3T3 host cells, beta-gal luminescence, confirmation (AID 2044); type: functional, cell-based;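 also: intracellular parasites grown in NIH/3T3 mouse fibroblasts as host cells; luminescent beta-galactosidase reporter signal from transgenic T. cruzi replicating inside host cells; inhibitors lower the luminescence signal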

Chain of Photoreceptor-specific nuclear receptor (Q9Y5X4 whole entry, the tested form may be a part): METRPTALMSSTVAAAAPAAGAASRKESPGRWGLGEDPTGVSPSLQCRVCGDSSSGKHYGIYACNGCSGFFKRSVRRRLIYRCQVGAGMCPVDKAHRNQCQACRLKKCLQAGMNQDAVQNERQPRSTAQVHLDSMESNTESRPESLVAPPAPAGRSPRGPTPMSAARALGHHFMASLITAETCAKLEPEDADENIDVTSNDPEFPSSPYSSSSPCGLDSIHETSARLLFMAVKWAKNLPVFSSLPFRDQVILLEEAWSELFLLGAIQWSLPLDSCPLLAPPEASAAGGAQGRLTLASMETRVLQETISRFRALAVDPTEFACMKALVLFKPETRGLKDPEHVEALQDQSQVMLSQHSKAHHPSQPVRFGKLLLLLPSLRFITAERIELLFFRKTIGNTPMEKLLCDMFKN
Chain of Dual specificity protein phosphatase 3 (P51452 whole entry): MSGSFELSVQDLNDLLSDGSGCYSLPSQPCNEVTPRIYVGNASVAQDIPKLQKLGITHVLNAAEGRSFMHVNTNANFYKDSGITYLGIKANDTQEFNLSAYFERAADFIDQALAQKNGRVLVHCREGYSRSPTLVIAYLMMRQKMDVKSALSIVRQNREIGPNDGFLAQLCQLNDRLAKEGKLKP
Chain of Large T antigen (P03070 whole entry): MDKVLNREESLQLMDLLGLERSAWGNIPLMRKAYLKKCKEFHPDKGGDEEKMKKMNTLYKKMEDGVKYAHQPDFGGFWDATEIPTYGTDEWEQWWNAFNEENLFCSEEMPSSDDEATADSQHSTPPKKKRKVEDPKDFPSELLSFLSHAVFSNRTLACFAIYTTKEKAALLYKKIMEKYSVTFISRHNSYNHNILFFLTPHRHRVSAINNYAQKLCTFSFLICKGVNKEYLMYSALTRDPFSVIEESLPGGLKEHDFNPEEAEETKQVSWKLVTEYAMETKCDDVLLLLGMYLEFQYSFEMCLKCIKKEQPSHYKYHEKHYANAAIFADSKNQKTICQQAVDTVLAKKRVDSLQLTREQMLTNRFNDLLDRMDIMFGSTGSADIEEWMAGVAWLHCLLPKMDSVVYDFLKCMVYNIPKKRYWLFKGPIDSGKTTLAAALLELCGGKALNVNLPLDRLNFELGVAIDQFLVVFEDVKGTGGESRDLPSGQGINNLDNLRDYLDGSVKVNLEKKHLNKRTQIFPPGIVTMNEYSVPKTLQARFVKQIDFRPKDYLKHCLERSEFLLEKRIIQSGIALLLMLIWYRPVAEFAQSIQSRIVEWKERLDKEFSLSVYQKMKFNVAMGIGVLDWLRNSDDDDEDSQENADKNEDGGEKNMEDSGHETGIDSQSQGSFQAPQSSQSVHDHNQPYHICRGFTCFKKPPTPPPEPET
Chain of 26S proteasome non-ATPase regulatory subunit 14 (O00487 whole entry): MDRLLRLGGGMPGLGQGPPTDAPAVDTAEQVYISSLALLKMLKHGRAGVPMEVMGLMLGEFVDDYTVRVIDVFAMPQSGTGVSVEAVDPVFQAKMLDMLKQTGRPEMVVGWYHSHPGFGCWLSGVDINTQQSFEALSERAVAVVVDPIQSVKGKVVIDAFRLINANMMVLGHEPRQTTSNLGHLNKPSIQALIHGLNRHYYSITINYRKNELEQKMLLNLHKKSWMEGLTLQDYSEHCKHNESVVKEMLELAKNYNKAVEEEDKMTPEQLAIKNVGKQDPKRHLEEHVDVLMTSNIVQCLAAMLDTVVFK
Chain of 72 kDa type IV collagenase (P08253 whole entry): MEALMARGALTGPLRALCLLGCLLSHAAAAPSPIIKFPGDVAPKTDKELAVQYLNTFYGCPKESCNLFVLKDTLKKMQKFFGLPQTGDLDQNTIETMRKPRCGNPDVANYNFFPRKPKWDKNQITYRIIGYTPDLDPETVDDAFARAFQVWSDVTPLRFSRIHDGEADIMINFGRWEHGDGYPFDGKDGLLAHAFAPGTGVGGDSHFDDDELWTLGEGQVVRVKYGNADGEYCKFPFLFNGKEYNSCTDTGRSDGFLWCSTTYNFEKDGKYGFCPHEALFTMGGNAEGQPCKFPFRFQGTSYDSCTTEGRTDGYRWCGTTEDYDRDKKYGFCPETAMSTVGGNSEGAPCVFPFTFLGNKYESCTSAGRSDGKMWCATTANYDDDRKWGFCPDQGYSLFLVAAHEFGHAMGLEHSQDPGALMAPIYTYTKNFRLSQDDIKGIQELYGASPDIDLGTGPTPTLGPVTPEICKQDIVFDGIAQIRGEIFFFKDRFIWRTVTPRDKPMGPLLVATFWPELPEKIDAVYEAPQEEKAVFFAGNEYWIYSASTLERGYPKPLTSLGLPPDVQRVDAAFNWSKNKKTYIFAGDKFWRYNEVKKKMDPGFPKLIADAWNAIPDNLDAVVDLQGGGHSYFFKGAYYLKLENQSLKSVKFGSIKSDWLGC
Chain of Cytochrome P450 3A4 (P08684 whole entry): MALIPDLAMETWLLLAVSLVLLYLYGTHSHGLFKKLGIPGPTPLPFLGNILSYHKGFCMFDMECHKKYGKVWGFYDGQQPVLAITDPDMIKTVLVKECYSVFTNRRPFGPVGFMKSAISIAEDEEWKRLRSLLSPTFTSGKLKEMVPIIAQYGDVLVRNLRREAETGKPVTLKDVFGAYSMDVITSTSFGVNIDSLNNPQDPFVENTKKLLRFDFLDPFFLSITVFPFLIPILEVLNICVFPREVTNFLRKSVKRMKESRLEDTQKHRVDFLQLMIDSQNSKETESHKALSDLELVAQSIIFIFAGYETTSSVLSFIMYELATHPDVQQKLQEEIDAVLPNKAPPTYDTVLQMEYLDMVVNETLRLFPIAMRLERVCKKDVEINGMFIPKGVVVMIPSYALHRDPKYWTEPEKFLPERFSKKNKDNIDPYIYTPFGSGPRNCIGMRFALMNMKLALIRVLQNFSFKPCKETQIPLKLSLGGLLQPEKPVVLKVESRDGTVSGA
Chain of Tyrosine-protein phosphatase non-receptor type 11 (Q06124 whole entry): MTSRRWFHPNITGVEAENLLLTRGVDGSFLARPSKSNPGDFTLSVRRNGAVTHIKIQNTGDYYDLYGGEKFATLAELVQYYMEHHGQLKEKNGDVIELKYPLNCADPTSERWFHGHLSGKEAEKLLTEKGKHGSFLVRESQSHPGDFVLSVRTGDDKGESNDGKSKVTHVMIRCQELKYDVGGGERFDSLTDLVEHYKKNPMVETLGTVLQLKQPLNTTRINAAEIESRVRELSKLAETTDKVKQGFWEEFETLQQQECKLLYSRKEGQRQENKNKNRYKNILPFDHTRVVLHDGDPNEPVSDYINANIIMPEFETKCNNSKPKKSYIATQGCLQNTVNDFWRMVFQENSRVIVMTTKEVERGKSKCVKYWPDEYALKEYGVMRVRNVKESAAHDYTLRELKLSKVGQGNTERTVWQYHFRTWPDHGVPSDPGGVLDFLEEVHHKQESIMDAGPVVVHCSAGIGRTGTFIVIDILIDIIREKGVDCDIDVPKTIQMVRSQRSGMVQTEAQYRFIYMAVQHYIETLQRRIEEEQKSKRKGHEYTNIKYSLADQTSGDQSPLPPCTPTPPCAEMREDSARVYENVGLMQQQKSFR
Chain of Tyrosine-protein phosphatase non-receptor type 5 (P54829 whole entry): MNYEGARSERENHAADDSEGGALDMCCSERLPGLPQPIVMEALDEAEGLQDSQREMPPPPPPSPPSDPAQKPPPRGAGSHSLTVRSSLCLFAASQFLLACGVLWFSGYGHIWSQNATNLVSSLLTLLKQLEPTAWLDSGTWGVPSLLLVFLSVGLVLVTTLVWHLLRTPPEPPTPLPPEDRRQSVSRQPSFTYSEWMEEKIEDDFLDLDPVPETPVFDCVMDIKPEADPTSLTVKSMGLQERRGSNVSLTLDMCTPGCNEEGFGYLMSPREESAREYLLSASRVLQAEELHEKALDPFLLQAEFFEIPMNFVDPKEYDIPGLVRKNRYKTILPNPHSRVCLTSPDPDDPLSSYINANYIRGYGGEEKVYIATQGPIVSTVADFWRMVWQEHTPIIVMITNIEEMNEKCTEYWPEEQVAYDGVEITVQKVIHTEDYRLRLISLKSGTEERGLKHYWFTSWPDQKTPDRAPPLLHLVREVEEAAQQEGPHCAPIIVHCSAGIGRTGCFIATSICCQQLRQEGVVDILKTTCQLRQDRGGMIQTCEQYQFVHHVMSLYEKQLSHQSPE

With `Cc1ccc(NC(=O)c2ccc3c(c2)OCCO3)nc1` the AC50 (HEK293) was 2.56 µM (active), the EC50 [1] was 11.3 µM (active) and the AC50 [2] was 186 µM (active). The EC50 [3] was 8.65 µM (inconclusive).
For `CCN1CCN(C(=S)c2ccc(Br)cc2)CC1`, the AC50 (Cytochrome P450 3A4) was 17.8 µM (inconclusive), the IC50 [4] was 39.4 µM (inactive) and the IC50 [5] was 1.88 µM (active). The IC50 [6] was 0.942 µM (active).
In the case of `CCOc1cc(/C=C2\NC(=S)N(c3c(C)n(C)n(-c4ccccc4)c3=O)C2=O)ccc1O`, the IC50 (Large T antigen) was 5.37 µM (active), the IC50 [7] was 9.31 µM (active) and the IC50 (Prothrombin) was 39.7 µM (active). The IC50 [8] was 27.9 µM (active).
With `O=C(Nc1cc(Cl)cc(Cl)c1)c1coc(=O)c(Br)c1` the IC50 [9] was > 20 µM (inactive), the EC50 [10] was 15.1 µM (active) and the IC50 [11] was 8.37 µM (active).
In the case of `O=C(CSc1nnnn1-c1ccc2c(c1)OCCO2)Nc1nc2c(s1)CCCC2`, the IC50 [12] was 1.6 µM (active).
In the case of `Cn1nc([N+](=O)[O-])nc1Oc1ccc(C(C)(C)C)cc1`, the IC50 [9] was 9.25 µM (active), the EC50 [13] was > 60 µM (inconclusive) and the EC50 [14] was 0.201 µM (active). The EC50 [10] was > 53 µM (inactive) and the IC50 [11] was 12.7 µM (active).
